US7232827B2, “Heteroaryl substituted 2-pyridinyl and 2-pyrimidinyl-6,7,8,9-tetrahydropyrimido[1,2-a]pyrimidin-4-one derivatives” (Sanofi-Aventis, priority 2002, dated 2007)

Biological target: GSK3β (Homo sapiens, UniProt P49841)
Assay: Inhibitory activity against GSK3β (33P-ATP phosphorylation of prephosphorylated GS1 peptide)
Type: biochemical
Conditions: single compounds; first or second protocol not specified
Method: Two different protocols can be used.
In a first protocol: 7.5 μM of prephosphorylated GS1 peptide and 10 μM ATP (containing 300,000 cpm of 33P-ATP) were incubated in 25 mM Tris-HCl, pH 7.5, 0.6 mM DTT, 6 mM MgCl2, 0.6 mM EGTA, 0.05 mg/ml BSA buffer for 1 hour at room temperature in the presence of GSK3β (total reaction volume: 100 microliters).
In a second protocol: 4.1 μM of prephosphorylated GS1 peptide and 42 μM ATP (containing 260,000 cpm 33P-ATP) were incubated in 80 mM Mes-NaOH, pH 6.5, 1 mM Mg acetate, 0.5 mM EGTA, 5 mM 2-mercaptoethanol, 0.02% Tween 20, 10% glycerol buffer for 2 hours at room temperature in the presence of GSK3β.
Inhibitors were solubilised in DMSO (final solvent concentration in the reaction medium, 1%).
The reaction was stopped with 100 microliters of a solution made of 25 g polyphosphoric acid (85% P2O5), 126 ml 85% H3PO4, H2O to 500 ml and then diluted to 1:100 before use. An aliquot of the reaction mixture was then transferred to Whatman P81 cation exchange filters and rinsed with the solution described above. Incorporated 33P radioactivity was determined by liquid scintillation spectrometry.
The phosphorylated GS-1 peptide had the following sequence: NH2-[…](P)EDEE-COOH.

Chain of GSK3β (P49841 whole entry, species assumed): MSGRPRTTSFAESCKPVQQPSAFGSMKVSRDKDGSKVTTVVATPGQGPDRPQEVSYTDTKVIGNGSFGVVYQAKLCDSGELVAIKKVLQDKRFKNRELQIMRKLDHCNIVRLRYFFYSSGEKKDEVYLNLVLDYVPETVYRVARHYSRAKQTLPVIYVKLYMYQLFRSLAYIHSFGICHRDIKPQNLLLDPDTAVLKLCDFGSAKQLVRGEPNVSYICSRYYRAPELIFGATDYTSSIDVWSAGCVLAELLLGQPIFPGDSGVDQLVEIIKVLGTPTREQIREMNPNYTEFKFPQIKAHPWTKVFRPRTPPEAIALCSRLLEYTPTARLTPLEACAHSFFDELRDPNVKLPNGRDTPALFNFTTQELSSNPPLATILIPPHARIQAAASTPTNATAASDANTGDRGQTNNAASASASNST

IC50 [nM] | Compound
8 | Cc1ccc2c(n1)CC(CN1CC(C)(C)Cn3c1nc(-c1ccncc1)cc3=O)C2 (racemic) [compound 4 of table 1A, (+/−)-7,7-Dimethyl-9-(2-methyl-6,7-dihydro-5H-[1]pyrindin-6-ylmethyl) -2-(pyridin-4-yl)-6,7,8,9-tetrahydro-pyrimido[1,2-a]pyrimidin-4-one]
15 | CC1CCn2c(nc(-c3ccncn3)cc2=O)N1CC1COc2ccccc2O1 (centres unmarked) [compound 8 of table 2B, 9-(2,3-Dihydro-benzo[1,4]dioxin-2-ylmethyl)-8-methyl-2-pyrimidin-4-yl-6,7,8,9-tetrahydro-pyrimido[1,2-a]pyrimidin-4-one]
